Experimental data from PubChem BioAssay (NCI).
Values after ≈ are worked out from the molar mass of the structure shown.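 Protocol summary: plate cells (96-well), add compound at 5 concentrations, incubate 48 h, interpolate endpoints linearly. At the GI50, growth is halved. TGI marks complete inhibition of growth.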

How the values were obtained:
Assay in all cases: NCI tumour cell line growth inhibition, 48 h; in the data active = GI50 below about 0.43 µM; inactive = the rest
CCRF-CEM leukemia = system: CCRF-CEM leukemia
M14 melanoma = system: M14 melanoma
K-562 leukemia = system: K-562 leukemia
MCF7 breast = system: MCF7 breast
DU-145 prostate = system: DU-145 prostate
SK-MEL-5 melanoma = system: SK-MEL-5 melanoma
OVCAR-3 ovarian = system: OVCAR-3 ovarian
HL-60(TB) leukemia = system: HL-60(TB) leukemia
U251 CNS = system: U251 CNS
RPMI-8226 leukemia = system: RPMI-8226 leukemia
OVCAR-8 ovarian = system: OVCAR-8 ovarian
HT29 colon = system: HT29 colon
MDA-MB-231 breast = system: MDA-MB-231 breast
MOLT-4 leukemia = system: MOLT-4 leukemia
LOX IMVI melanoma = system: LOX IMVI melanoma
SN12C renal = system: SN12C renal
HCT-116 colon = system: HCT-116 colon
UO-31 renal = system: UO-31 renal
MDA-N = system: MDA-N
NCI/ADR-RES ovarian = system: NCI/ADR-RES ovarian
IGROV1 ovarian = system: IGROV1 ovarian
T-47D breast = system: T-47D breast
SW-620 colon = system: SW-620 colon
MDA-MB-435 = system: MDA-MB-435
786-0 renal = system: 786-0 renal
UACC-62 melanoma = system: UACC-62 melanoma
SF-539 CNS = system: SF-539 CNS
COLO 205 colon = system: COLO 205 colon
TK-10 renal = system: TK-10 renal
OVCAR-4 ovarian = system: OVCAR-4 ovarian
HS 578T breast = system: HS 578T breast
SF-295 CNS = system: SF-295 CNS
HCT-15 colon = system: HCT-15 colon
CAKI-1 renal = system: CAKI-1 renal
OVCAR-5 ovarian = system: OVCAR-5 ovarian
ACHN renal = system: ACHN renal
RXF 393 renal = system: RXF 393 renal
SNB-75 CNS = system: SNB-75 CNS
SR leukemia = system: SR leukemia
NCI-H226 lung = system: NCI-H226 lung
HOP-62 NSCLC = system: HOP-62 NSCLC
SF-268 CNS = system: SF-268 CNS
A549 NSCLC = system: A549 NSCLC
SK-OV-3 ovarian = system: SK-OV-3 ovarian
NCI-H460 lung = system: NCI-H460 lung
NCI-H23 lung = system: NCI-H23 lung
UACC-257 melanoma = system: UACC-257 melanoma
KM12 colon = system: KM12 colon
SK-MEL-28 melanoma = system: SK-MEL-28 melanoma
SK-MEL-2 melanoma = system: SK-MEL-2 melanoma
HCC-2998 colon = system: HCC-2998 colon
SNB-19 CNS = system: SNB-19 CNS
PC-3 prostate = system: PC-3 prostate

CC(=O)OCCOCN1C(=O)NC(=O)/C(=C/c2cccc(OCc3ccccc3)c2)C1=O
73.2 µg/mL: TGI (RPMI-8226 leukemia)
45.4 µg/mL: TGI (NCI/ADR-RES ovarian)
inactive: GI50 (CCRF-CEM leukemia) 25 µg/mL (≈ 56.9 µM) | GI50 (M14 melanoma) 55.4 µg/mL (≈ 126 µM) | GI50 (K-562 leukemia) 34.9 µg/mL (≈ 79.7 µM) | GI50 (MCF7 breast) 42.5 µg/mL (≈ 97 µM) | GI50 (DU-145 prostate) 66 µg/mL (≈ 151 µM) | GI50 (SK-MEL-5 melanoma) 33.5 µg/mL (≈ 76.3 µM) | GI50 (OVCAR-3 ovarian) 50.3 µg/mL (≈ 115 µM) | GI50 (HL-60(TB) leukemia) 15 µg/mL (≈ 34.2 µM) | GI50 (U251 CNS) 55.7 µg/mL (≈ 127 µM) | GI50 (RPMI-8226 leukemia) 29.1 µg/mL (≈ 66.4 µM) | GI50 (OVCAR-8 ovarian) 37.9 µg/mL (≈ 86.6 µM) | GI50 (HT29 colon) 48 µg/mL (≈ 110 µM) | GI50 (MDA-MB-231 breast) 94.7 µg/mL (≈ 216 µM) | GI50 (MOLT-4 leukemia) 35.3 µg/mL (≈ 80.5 µM) | GI50 (LOX IMVI melanoma) 35.7 µg/mL (≈ 81.4 µM) | GI50 (SN12C renal) 66 µg/mL (≈ 151 µM) | GI50 (HCT-116 colon) 47.8 µg/mL (≈ 109 µM) | GI50 (UO-31 renal) 65.9 µg/mL (≈ 150 µM) | GI50 (MDA-N) 29.4 µg/mL (≈ 67.1 µM) | GI50 (NCI/ADR-RES ovarian) 19.9 µg/mL (≈ 45.4 µM) | GI50 (IGROV1 ovarian) 33.6 µg/mL (≈ 76.7 µM) | GI50 (T-47D breast) 73.9 µg/mL (≈ 169 µM) | GI50 (SW-620 colon) 68.1 µg/mL (≈ 155 µM) | GI50 (MDA-MB-435) 63.6 µg/mL (≈ 145 µM) | GI50 (786-0 renal) 62.1 µg/mL (≈ 142 µM) | GI50 (UACC-62 melanoma) 48.5 µg/mL (≈ 111 µM) | GI50 (SF-539 CNS) 23.4 µg/mL (≈ 53.3 µM)
48.6 µg/mL: TGI (HL-60(TB) leukemia)
58.1 µg/mL: TGI (CCRF-CEM leukemia)
79.1 µg/mL: TGI (SF-539 CNS)

COC1CCC(=O)N1CN(C(C)=O)c1ccc(C)cc1 (configuration not stated)
> 100 µM: TGI (COLO 205 colon) | TGI (M14 melanoma) | TGI (K-562 leukemia) | TGI (MCF7 breast) | TGI (TK-10 renal) | TGI (OVCAR-4 ovarian) | TGI (HS 578T breast) | TGI (SF-295 CNS) | TGI (DU-145 prostate) | TGI (HCT-15 colon) | TGI (CAKI-1 renal) | TGI (OVCAR-5 ovarian) | TGI (ACHN renal) | TGI (RXF 393 renal) | TGI (SNB-75 CNS) | TGI (SK-MEL-5 melanoma) | TGI (SR leukemia) | TGI (OVCAR-3 ovarian) | TGI (NCI-H226 lung) | TGI (HOP-62 NSCLC) | TGI (SF-268 CNS) | TGI (U251 CNS) | TGI (A549 NSCLC) | TGI (RPMI-8226 leukemia) | TGI (OVCAR-8 ovarian) | TGI (SK-OV-3 ovarian) | TGI (HT29 colon) | TGI (MDA-MB-231 breast) | TGI (MOLT-4 leukemia) | TGI (LOX IMVI melanoma) | TGI (SN12C renal) | TGI (HCT-116 colon) | TGI (UO-31 renal) | TGI (MDA-N) | TGI (NCI/ADR-RES ovarian) | TGI (NCI-H460 lung) | TGI (T-47D breast) | TGI (NCI-H23 lung) | TGI (SW-620 colon) | TGI (UACC-257 melanoma) | TGI (MDA-MB-435) | TGI (786-0 renal) | TGI (UACC-62 melanoma) | TGI (KM12 colon) | TGI (SK-MEL-28 melanoma) | TGI (SK-MEL-2 melanoma) | TGI (SF-539 CNS) | TGI (HCC-2998 colon) | TGI (SNB-19 CNS) | TGI (PC-3 prostate)
